This note sets out measurements from paper PMC6278306, “Anti-Leishmanial and Cytotoxic Activities of a Series of Maleimides: Synthesis, Biological Evaluation and Structure-Activity Relationship” (Molecules, 2018).

The nature of series [1]: Cytotoxicity assay (Alamar Blue). It counts as cell-based. As to conditions: human, concentrations 10–0.0032 μg/mL. Here is the method: In order to verify the safety of maleimides, they were tested for cytotoxicity against human monocytic leukemia cells (THP1) 50% cytotoxic concentration values represent the concentration of compound required to kill 50% of the THP1 cells were calculated (CC50). The selectivity indices were calculated using the formula SI = CC50 /IC50, against promastigotes. […] SIs of 16 and 42 were greater than 781.3.
(§1) In vitro anti-leishmanial assay. The antileishmanial activity of the compounds was tested in vitro against a culture of L. donovani promastigotes. The promastigotes were grown in RPMI 1640 medium supplemented with 10% fetal calf serum (Gibco Chem. Co., 81 Wyman Street, Waltham, MA, USA) at 26 °C. A three day old culture was diluted to 5 × 10^5 promastigotes/mL. Drug dilutions were prepared directly in cell suspension in 96-well plates. Plates were incubated at 26 °C for 48 h and the growth of Leishmania promastigotes was determined by the Alamar blue assay as described earlier. Standard fluorescence was measured on a Fluostar Galaxy plate reader (BMG Lab Technologies, Offenburg, Germany) at an excitation wavelength of 544 nm and an emission wavelength of 590 nm. Pentamidine and amphotericin B were used as the standard anti-leishmanial agents. IC50 values were computed from dose-response curves as above. The tested compounds were diluted with six concentrations (from 40–0.0128 μg/mL). Cytotoxicity assay. The in vitro cytotoxicity was determined against human monocytic leukemia cells (THP1) with a simple colorimetric method using the dye Alamar Blue. […] Cells were grown to a density between 0.2 and 1 × 10^6 cells/mL. Culture medium was replaced every 2–3 days with fresh growth medium. DMSO was used as the solvent, and the test compounds was with six concentrations from 10–0.0032 μg/mL.
The in vitro cytotoxicity was determined against human monocytic leukemia cells (THP1) with a simple colorimetric method using the dye Alamar Blue, which was reported in the reference (Mikus, J.; Steverding, D. A simple colorimetric method to screen drug cytotoxicity against Leishmania, using the dye Alamar Blue. Parasitol Int. 2000, 48(3),265-269.). THP1 suspensions were grown in RPMI-1640 medium supplemented with 10% FBS, 2 mM glutamine, 50 μg/mL […]
were grown to a density between 0.2 and 1×10^6 cells/mL. Culture medium was replaced every 2-3 days with fresh growth medium. DMSO was used as the solvent, and the test compounds was with six concentrations from 10-0.0032μg/mL.
In general terms: Resazurin is reduced to fluorescent resorufin, in cell work by metabolically active cells.

In series [2] the test system is L. donovani promastigotes. Briefly: In vitro anti-leishmanial assay (Alamar blue, promastigotes). It counts as cell-based, Leishmania donovani. As to conditions: for IC50: Leishmania donovani, 48 h, read-out: L. donvani IC50; for SI: SI = CC50 /IC50, THP1 vs promastigotes. The procedure:
Anti-leishmanial activity in vitro was described in terms of IC50, which is the effective concentration (μg/mL) required to achieve 50% growth inhibition, with promastigotes in their exponential growth phase.
as §1, with “Pentamidine and amphotericin B were used as the standard anti-leishmanial agents.” left out

The mark [3] stands for this setting: THP1 cells (human monocytic leukemia).

Values after ≈ are worked out from the molar mass of the structure shown. Bounds are passed on as bounds.

Consider `CCCCN1C(=O)C=CC1=O` [Compound 1], for which, in series [1] (setting [3]), the CC50 (as a rule, the concentration that lowers cell viability or growth by half) was > 10 µg/mL. Besides, in series [2], the IC50 (in general, the point on the concentration scale where inhibition reaches its midpoint) is 0.08 µg/mL (≈ 0.522 µM) and the SI is >125.0.
The like results for `CCCCCN1C(=O)C=CC1=O` [Compound 2] were, in that order, > 10 µg/mL, 0.36 µg/mL (≈ 2.15 µM) and >27.8.
The like results for `CCCCCCN1C(=O)C=CC1=O` [Compound 3] were, in that order, > 10 µg/mL, 0.11 µg/mL (≈ 0.607 µM) and >90.9.
The like results for `CCCCCCCCN1C(=O)C=CC1=O` [Compound 4] were, in that order, > 10 µg/mL, 0.27 µg/mL (≈ 1.29 µM) and >37.0.
Take `CCCCCCCCCCCCN1C(=O)C=CC1=O` [Compound 5]: the CC50 in series [1] (setting [3]) was > 10 µg/mL. Moreover, in series [2], the IC50 came out at 2.21 µg/mL (≈ 8.33 µM) and the SI is on record as >4.5.
For `O=C1C=CC(=O)N1Cc1ccccc1` [Compound 6], in that order: 4.56 µg/mL (≈ 24.4 µM), 0.08 µg/mL (≈ 0.427 µM) and 57.0.
The like results for `O=C1C=CC(=O)N1CCc1ccccc1` [Compound 7] were, in that order, 4.13 µg/mL (≈ 20.5 µM), 0.1 µg/mL (≈ 0.497 µM) and 41.3.
For `O=C1C=CC(=O)N1CCCc1ccccc1` [Compound 8], in that order: 8.25 µg/mL (≈ 38.3 µM), 0.11 µg/mL (≈ 0.511 µM) and 75.0.
For `O=C1C=CC(=O)N1c1ccccc1` [Compound 9], in series [1] (setting [3]), the cytotoxic concentration (CC50) is > 10 µg/mL. In series [2], the IC50 was found to be 0.24 µg/mL (≈ 1.39 µM) and the SI is listed as >41.7.
For `Cc1ccc(N2C(=O)C=CC2=O)cc1` [Compound 10], in that order: > 10 µg/mL, 0.15 µg/mL (≈ 0.801 µM) and >66.7.
Take `O=C1C=CC(=O)N1c1ccc(F)cc1` [Compound 11]: in series [1] (setting [3]), the half-maximal cytotoxic concentration (CC50) is > 10 µg/mL. Moreover, in series [2], the half-maximal inhibitory concentration (IC50) was 0.32 µg/mL (≈ 1.67 µM) and the SI is >31.3.
The like results for `O=C1C=CC(=O)N1c1ccc(Cl)cc1` [Compound 12] were, in that order, > 10 µg/mL, 1.02 µg/mL (≈ 4.91 µM) and >9.8.
`Cc1cccc(C)c1N1C(=O)C=CC1=O` [Compound 13]: the melting point (in general, the temperature of the solid-liquid transition) lay in the range of 188.8 to 190.4 °C. Also, the cytotoxic concentration (CC50) in series [1] (setting [3]) is 3.65 µg/mL (≈ 18.1 µM). Moreover, in series [2], the concentration for half-maximal inhibition (IC50) is 0.1 µg/mL (≈ 0.497 µM) and the SI was 36.5.
For `CCc1cccc(CC)c1N1C(=O)C=CC1=O` [Compound 14], in that order: 192.8 to 194.1 °C, 3.89 µg/mL (≈ 17 µM), 0.08 µg/mL (≈ 0.349 µM) and 48.6.
In turn, `O=C1C=CC(=O)N1c1cc(F)c(F)c(F)c1` [Compound 15] came in with a melting point of 153.4 to 165.6 °C. Moreover, the CC50 in series [1] (setting [3]) is > 10 µg/mL. The IC50 in series [2] was determined as 0.21 µg/mL (≈ 0.925 µM).
Consider `CC(C)CN1C(=O)C=CC1=O` [Compound 16], for which the melting point lay within 52.8 to 53.9 °C. For the same compound, in series [1] (setting [3]), the CC50 is > 10 µg/mL. Also, the “anti-leishmanial activity, times better than amphotericin B” value in series [2] (L. donovani, relative to amphotericin B) came to 10. The IC50 in series [2] is < 0.0128 µg/mL.
In the case of `O=C1C=CC(=O)N1C1CCCCC1` [Compound 17], the cytotoxic concentration (CC50) in series [1] (setting [3]) was > 10 µg/mL. Further, in series [2], the IC50 was 0.26 µg/mL (≈ 1.45 µM) and the SI is listed as >38.5.
For `CCCCCN1C(=O)C=C(C)C1=O` [Compound 18], in that order: 7.64 µg/mL (≈ 42.2 µM), 0.58 µg/mL (≈ 3.2 µM) and 13.2.
The like results for `CCCCCCN1C(=O)C=C(C)C1=O` [Compound 19] were, in that order, 5.89 µg/mL (≈ 30.2 µM), 0.81 µg/mL (≈ 4.15 µM) and 7.3.
For `CCCCCCCCN1C(=O)C=C(C)C1=O` [Compound 20], the half-maximal cytotoxic concentration (CC50) in series [1] (setting [3]) was determined as 8.1 µg/mL (≈ 36.3 µM). Also, in series [2], the IC50 came to 0.96 µg/mL (≈ 4.3 µM) and the SI came to 8.4.
For `CC1=CC(=O)N(Cc2ccccc2)C1=O` [Compound 21], the midpoint of cytotoxicity in series [1] (setting [3]), the CC50, lay at 7.94 µg/mL (≈ 39.5 µM). Besides, in series [2], the concentration for half-maximal inhibition (IC50) turned out to be 0.58 µg/mL (≈ 2.88 µM) and the SI came out at 13.7.
For `CC1=CC(=O)N(CCc2ccccc2)C1=O` [Compound 22], in that order: 5.99 µg/mL (≈ 27.8 µM), 1.22 µg/mL (≈ 5.67 µM) and 4.9.
As to `CC1=CC(=O)N(c2c(C)cccc2C)C1=O` [Compound 23], the melting point was in the range of 190.8 to 192 °C. In addition, the CC50 in series [1] (setting [3]) was > 10 µg/mL. Besides, in series [2], the IC50 amounted to 13.2 µg/mL (≈ 61.2 µM) and the SI is recorded as >0.8.
The like results for `CCc1cccc(CC)c1N1C(=O)C=C(C)C1=O` [Compound 24] were, in that order, 195.8 to 197.3 °C, 4.39 µg/mL (≈ 18 µM), 0.55 µg/mL (≈ 2.26 µM) and 8.0.
`CC1=CC(=O)N(c2cc(Cl)cc(Cl)c2)C1=O` [Compound 25]: the melting point lay in the range of 170.8 to 173.2 °C. For the same compound, the 50% cytotoxic concentration (CC50) in series [1] (THP1 cells) worked out at 0.8 µg/mL (≈ 3.12 µM). For the same compound, in series [2], the half-inhibitory concentration (IC50) worked out at 0.34 µg/mL (≈ 1.33 µM) and the SI is listed as 2.4.
On to `CC1=CC(=O)N(CC(C)C)C1=O` [Compound 26], for which, in series [1] (setting [3]), the half-maximal cytotoxic concentration (CC50) is > 10 µg/mL. In series [2], the IC50 amounted to 0.64 µg/mL (≈ 3.83 µM) and the SI is on record as >15.6.
For the compound `CC1=CC(=O)N(C2CCCCC2)C1=O` [Compound 27], the melting point fell in the range of 65.6 to 66.5 °C. The same compound gave a CC50 in series [1] (setting [3]) of 7.15 µg/mL (≈ 37 µM). In series [2], the IC50 turned out to be 0.89 µg/mL (≈ 4.61 µM) and the SI is listed as 8.0.
For `CCCCN1C(=O)C(Cl)=C(Cl)C1=O` [Compound 28], the CC50 in series [1] (THP1 cells) was > 10 µg/mL. In addition, in series [2], the IC50 amounted to 0.47 µg/mL (≈ 2.12 µM) and the SI was >21.3.
For `CCCCCN1C(=O)C(Cl)=C(Cl)C1=O` [Compound 29], in that order: > 10 µg/mL, 0.65 µg/mL (≈ 2.75 µM) and >15.4.
In the case of `CCCCCCN1C(=O)C(Cl)=C(Cl)C1=O` [Compound 30], the cytotoxic concentration (CC50) in series [1] (THP1 cells) is > 10 µg/mL. Besides, in series [2], the 50% inhibitory concentration (IC50) stood at 0.49 µg/mL (≈ 1.96 µM) and the SI is >20.4.
For `CCCCCCCCN1C(=O)C(Cl)=C(Cl)C1=O` [Compound 31], in that order: > 10 µg/mL, 0.48 µg/mL (≈ 1.73 µM) and >20.8.
`O=C1C(Cl)=C(Cl)C(=O)N1CCc1ccccc1` [Compound 32]: the CC50 in series [1] (THP1 cells) was > 10 µg/mL. Besides, in series [2], the half-inhibitory concentration (IC50) came to 1.64 µg/mL (≈ 6.07 µM) and the SI is >6.1.
For `O=C1C(Cl)=C(Cl)C(=O)N1CCCc1ccccc1` [Compound 33], in series [1] (setting [3]), the 50% cytotoxic concentration (CC50) was > 10 µg/mL. Besides, in series [2], the IC50 stood at 0.4 µg/mL (≈ 1.41 µM) and the SI was >25.0.
As for `O=C1C(Cl)=C(Cl)C(=O)N1c1ccccc1` [Compound 34], the CC50 in series [1] (THP1 cells) was > 10 µg/mL. In series [2], the IC50 came to 0.76 µg/mL (≈ 3.14 µM) and the SI was >13.2.
For `Cc1ccc(N2C(=O)C(Cl)=C(Cl)C2=O)cc1` [Compound 35], in that order: > 10 µg/mL, 0.66 µg/mL (≈ 2.58 µM) and >15.2.
`O=C1C(Cl)=C(Cl)C(=O)N1c1ccc(F)cc1` [Compound 36]: the CC50 in series [1] (setting [3]) was > 10 µg/mL. Moreover, in series [2], the IC50 was found to be 0.36 µg/mL (≈ 1.38 µM) and the SI is >27.8.
For `O=C1C(Cl)=C(Cl)C(=O)N1c1ccc(Cl)cc1` [Compound 37], in series [1] (THP1 cells), the CC50 is > 10 µg/mL. Further, in series [2], the half-inhibitory concentration (IC50) was 0.59 µg/mL (≈ 2.13 µM) and the SI was >16.9.
For `O=C1C(Cl)=C(Cl)C(=O)N1c1cc(Cl)cc(Cl)c1` [Compound 43], in that order: > 10 µg/mL, 0.99 µg/mL (≈ 3.18 µM) and >10.1.
With `N=C(N)c1ccc(OCCCCCOc2ccc(C(=N)N)cc2)cc1` [pentamidine, reference compound], the IC50 in series [2] worked out at 0.64 µg/mL (≈ 1.88 µM).
